In the experiment the test system is iNOS. Kind of experiment: TPA-induced iNOS expression in mouse skin, immunohistochemical staining. Format: in vivo. Conditions: topical for 6 h after TPA, anti-iNOS immunostaining. As for the experimental part: Mice were treated or not treated topically on their shaven abdomens with acetone (vehicle only) or TPA (10 nmol in 200 μl acetone/site) for 6 h or treated first with TPA for 10 min, then with the indicated concentrations of BrD1 for 6 h. Mice were killed by cervical dislocation. Abdominal skin tissues were collected, fixed with formalin buffer and embedded in paraffin. Tissue sections ([…]) were cut and laid onto silanized glass slides and deparaffinized three times with xylene for 5 min each prior to rehydration using a graded alcohol bath. For hematoxyline and eosin staining, the sections were stained with hematoxyline and eosin staining. For immunohistochemical staining, the deparaffinized sections were boiled in 10 mM citrate buffer (pH 6.0) for 10 min for antigen retrieval and rinsed with PBS containing 0.05% Tween-20 buffer for 5 min. The sections were treated with 3% hydrogen peroxide in methanol for 15 min to decrease non-specific binding. They were subsequently washed with blocking solution (PBS containing 1% BSA) for 30 min and then PBST twice for 5 min. All slides were incubated first with 2% goat serum in blocking solution for 30 min, then with a 1:200 dilution of polyclonal iNOS antibody (eBioscience, San Diego, Calif.) at room temperature for 1 h. […] Subsequently, peroxidase-binding sites were determined by staining with 3,3′-diaminobenzidine tetrahydrochloride (Dako). […]

Regarding `CCCC(=O)O[C@H]1C/C(C)=C\[C@@H]2OC(=O)[C@]3(C)O[C@]23[C@@H](OC(C)=O)[C@H]2[C@@H](C)[C@@H](O)C[C@H](OC(C)=O)[C@]2(C)[C@H]1OC(C)=O` [BrD1, excavatolide B], the “TPA-induced iNOS expression” value was “markedly reduced the TPA-induced iNOS expression in the epidermal and dermal layers”. Further, the “TPA-induced iNOS expression” value (listed as excavatolide B) was “markedly reduces the TPA-induced iNOS expression in the epidermal and dermal layers”.

(Values after US8530513B1, “Pharmaceutical uses of diterpene excavatolide B from a coral or an analogue thereof” (National Sun Yat-Sen University, priority 2012, dated 2013).)
